Test results as given in patent US20240368139A1, “NOVEL MODULATORS OF EHMT1 AND EHMT2 AND THERAPEUTIC USE THEREOF” (Tango Therapeutics, Inc., priority 2021, published 2024).

What was measured:
[1] = system: H3K9me2 in HCT116 cells; assay: HCT116 H3K9me2 in-cell western assay; type: cell-based; conditions: Homo sapiens, HCT-116, 72 h, HCT116 cells, 72 hours incubation; read-out: H3K9me2 ICW IC50
Description: HCT116 cell line was purchased from ATCC (Manassas, VA, USA). […] Penicillin-Streptomycin and heat inactivated fetal bovine serum were purchased from Hyclone (Logan, UT, USA). DPBS, Corning^R were purchased from VWR (Radnor, PA, USA). Triton′ X-100 was purchased from Sigma (St. Louis, MO, USA). Intercept blocking buffer, DRAQ5, Licor Odyssey Infrared Scanner were purchased from Licor Biosciences (Lincoln, NB, USA). Plate washer was purchased from BioTek (Winooski, VT, USA). […] 16% Paraformaldehyde was purchased from Electron Microscopy Sciences (Hatfield, PA, USA). HCT116 cells were maintained in complete growth medium (RPMI supplemented with 10% heat inactivated fetal bovine serum, 1% Penicillin-Streptomycin) and cultured at 37° C. under 5% CO2. N^2-(4-methoxy-3-(3-(pyrrolidin-1-yl)propoxy)phenyl)-N^4,6-dimethyl]pyrimidine-2,4-diamine (synthesis disclosed in International Application WO2017181177A1) was used as a control compound.
HCT116 cells (ATCC) were trypsinized, counted and seeded in assay medium (RPMI supplemented with 10% heat inactivated fetal bovine serum, 1% Penicillin-Streptomycin) at a concentration of 2,000 cells per well to a 384-well cell culture plate with compounds in 50 μl per well. Plates were incubated with at 37° C. under 5% CO2 for 72 hours. After the incubation, 50 μl per well of 8% paraformaldehyde in PBS was added to the plates and incubated at room temperature for 20 minutes. Plates were transferred to a BioTek (EL406) plate washer and washed 5 times with 110 μl per well of wash buffer (1×PBS containing 0.1% Triton X-100). The plates were next blocked with 50 μl of Intercept blocking buffer for 1 hour at room temperature. Blocking buffer was removed and 30 μl per well of monoclonal primary antibody of H3K9me2 (CST) diluted 1:200 in Intercept blocking buffer were added and plates were incubated overnight at 4° C. The plates were then washed 5 times with 110 μl per well of wash buffer (1×PBS containing 0.1% Triton X-100). Next 30 μl per well of secondary was added (1:400 800 CW goat anti-rabbit IgG in blocking buffer) with 1:1000 DRAQ5 in blocking buffer and incubated for 2 hours at room temperature. The plates were washed 5 times with 110 μl per well of wash buffer (1×PBS containing 0.1% Triton X-100) then with 100 μl per well of water once. Plates were allowed to dry at room temperature then imaged on a Licor Odyssey Infrared Scanner which measured integrated intensity at 700 nm and 800 nm wavelength. Both 700 and 800 channels were scanned.
The average of the ratio values (800 nm/700 nm) for each well was calculated and used to determine the percentage for each test well in the plate. Compounds were serially diluted two-fold in 0.1% DMSO for a total of 10 test concentrations beginning at 10 μM. IC50 curves were generated using duplicate wells per concentration of compound. […] IC50 values were calculated using a non-linear regression of Prism.

[2] = molecular target: T1, human EHMT2 913-1193 (Homo sapiens, UniProt Q96KQ7); assay: EHMT2 enzyme assay on histone peptide substrate (3H-SAM SPA); conditions: EHMT2 IC50, recombinant human EHMT2 913-1193, histone peptide substrate
T1 sequence (Q96KQ7 913-1193): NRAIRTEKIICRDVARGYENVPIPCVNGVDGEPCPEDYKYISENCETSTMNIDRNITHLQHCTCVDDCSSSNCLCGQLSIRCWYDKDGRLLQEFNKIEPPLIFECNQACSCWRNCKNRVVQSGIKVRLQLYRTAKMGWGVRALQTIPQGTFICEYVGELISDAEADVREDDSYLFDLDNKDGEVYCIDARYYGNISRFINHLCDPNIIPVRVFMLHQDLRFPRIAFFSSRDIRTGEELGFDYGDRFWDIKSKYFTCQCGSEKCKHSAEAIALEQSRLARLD

[3] = molecular target: T2, human EHMT1 982-1266 (Homo sapiens, UniProt Q9H9B1); assay: EHMT1 enzyme assay on histone peptide substrate (3H-SAM SPA); conditions: EHMT1 IC50, recombinant human EHMT1 982-1266, histone peptide substrate
T2 sequence (Q9H9B1 982-1266): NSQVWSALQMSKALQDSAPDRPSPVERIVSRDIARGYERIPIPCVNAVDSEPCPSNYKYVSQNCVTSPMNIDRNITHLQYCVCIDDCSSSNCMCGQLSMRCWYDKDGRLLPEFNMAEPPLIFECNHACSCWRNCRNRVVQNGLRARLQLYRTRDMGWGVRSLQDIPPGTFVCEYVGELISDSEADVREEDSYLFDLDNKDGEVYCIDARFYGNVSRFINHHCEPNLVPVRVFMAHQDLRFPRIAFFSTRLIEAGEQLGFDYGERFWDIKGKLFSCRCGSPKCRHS

Structure (SMILES)	IC50 [1]	IC50 [2]	IC50 [3]
CNc1cc(C)nc(Nc2cc3c(c(C4=C[C@H]5CNC[C@H]5C4)c2)OCC3)n1 (racemic) [Compound 133, N2-[7-(1,2,3,3a,6,6a-hexahydrocyclopenta [c]pyrrol-5-yl)-2,3-dihydrobenzofuran-5-yl]-N4,6-dimethyl-pyrimidine-2,4-diamine]	0.5 to 2 µM	0.5 to 2 µM	0.1 to 0.5 µM
CNc1cc(C)nc(Nc2cc3c(c(C4=C[C@H]5CNC[C@H]5C4)c2)OC(F)(F)O3)n1 (racemic) [Compound 143, N2-[7-(1,2,3,3a,6,6a-hexahydrocyclopenta[c]pyrrol-5-yl)-2,2-difluoro-1,3-benzodioxol-5-yl]-N4,6-dimethyl-pyrimidine-2,4-diamine]	> 2 µM	> 2 µM	0.1 to 0.5 µM
CNc1cc(C)nc(Nc2cc3c(c(C4=C[C@@H]5CNC[C@@H]5C4)c2F)OCC3)n1 (racemic) [Compound 359, N2-[7-(1,2,3,3a,6,6a-hexahydrocyclopenta[c]pyrrol-5-yl)-6-fluoro-2,3-dihydrobenzofuran-5-yl]-N4,6-dimethyl-pyrimidine-2,4-diamine]	0.1 to 0.5 µM	0.1 to 0.5 µM	< 0.1 µM
CNc1cc(C)nc(Nc2cc3c(c(C4=CCN(C)CC(O)C4)c2F)OCC3)n1 (single isomer, unassigned) [Compound 352]	< 0.1 µM	< 0.1 µM	< 0.1 µM
CNc1cc(C)nc(Nc2cc3c(c(C4=CCNCC(O)C4)c2C)OCCC3)n1 (single isomer, unassigned) [Compound 355]	< 0.1 µM	< 0.1 µM	< 0.1 µM
CNc1cc(C)nc(Nc2cc3c(c(C4=CCNCC(O)C4)c2C)OCC3)n1 (single isomer, unassigned) [Compound 358]	0.1 to 0.5 µM	0.1 to 0.5 µM	0.1 to 0.5 µM
CNc1cc(C)nc(Nc2cc3c(c(C4=CCN(C)CC(O)C4)c2C)OCC3)n1 (single isomer, unassigned) [Compound 375]	0.1 to 0.5 µM	0.5 to 2 µM	0.1 to 0.5 µM
CNc1cc(C)nc(Nc2cc3c(c(C4=CCNCC(O)C4)c2Cl)OCC3)n1 (single isomer, unassigned) [Compound 376]	< 0.1 µM	0.1 to 0.5 µM	< 0.1 µM
CNc1cc(C)nc(Nc2cc3c(c(C4=CCNC(C)CC4)c2C)OCC3)n1 (single isomer, unassigned) [Compound 383]	< 0.1 µM	< 0.1 µM	< 0.1 µM
CNc1cc(C)nc(Nc2cc3c(c(C4=CCN(C)CC(O)C4)c2Cl)OCCC3)n1 (single isomer, unassigned) [Compound 402]	< 0.1 µM		
CNc1cc(C)nc(Nc2cc3c(c(C4=CCN(C)CCC4)c2F)OCCC3C)n1 (single isomer, unassigned) [Compound 406]	0.1 to 0.5 µM		
CNc1cc(C)nc(Nc2cc3c(c(C4=CCNCC(O)C4)c2Cl)OCCC3)n1 (single isomer, unassigned) [Compound 407]	< 0.1 µM		
CNc1cc(C)nc(Nc2cc3c(c(C4=CCNCCC4)c2F)OCCC3C)n1 (single isomer, unassigned) [Compound 414]	< 0.1 µM		
